Data reported in patent US7807445B2, “Antibiotic compound” (Merck Sharp and Dohme de Espana, S.A., priority 2004, dated 2010).
≈ marks a conversion by molar mass, not a printed value.

Key:
[1] = Microbroth dilution assay (MIC), antibacterial activity; assay type: cell-based; settings: range over all test strains (S. aureus, S. pneumoniae, E. faecalis, E. faecium, B. subtilis, E. coli and resistant strains); 35° C., read to no growth after 22-24 hours; NCCLS guidelines; read-out: minimum inhibitory concentration (MIC)
Protocol: (§1) The protocols used to determine the antibacterial activity of Compound I are described below.
(§2) • Cation-Adjusted Mueller Hinton Broth (MH; BBL) • 50% Lysed Horse Blood (LHB; BBL) (stored frozen) • RPMI 1640 (BioWhittaker) • Human Serum (Pel-Freez) • RPMI 1640 (BioWhittaker) • Haemophilus Test Medium (HTM, Remel) • Trypticase Soy Broth (TSB, 5 mL/tube; BBL) • 0.9% Sodium Chloride (Saline; Baxter) • Trypticase Soy+5% Sheep Blood Agar Plates (TSA; BBL) • Sabouraud Dextrose Agar Plates (BBL) • Chocolate Agar Plates (BBL) • 2× Skim Milk (Remel) • Microbank Beads (Kramer Scientific) • MIC 2000 Microtiter plate inoculator. • 2× Trypticase Soy Broth (TSB, BBL)+15% glycerol/50% horse serum. • 96-Well Microtiter plates, lids, inoculum trays (Dynex Laboratories) • 8-Channel Finn Multichannel pipettor, 0.5-10 μL volume Methods: Media Preparation
(§3) Cation-Adjusted Mueller Hinton Broth (BBL): Prepared according to manufacturer's instructions (22 gms dissolved in 1000 mL water; autoclaved 22 minutes). Stored refrigerated. Filter-sterilized before use using a Corning 0.45 Tm cellulose acetate filter.
(§4) Cation-Adjusted Mueller Hinton+2.5% Lysed Horse Blood: Aseptically add 5 mL 50% lysed horse blood to 100 mL Cation-Adjusted Mueller Hinton Broth. Filter-sterilize before use using a Corning 0.45 Tm cellulose acetate filter. […]

[2] = system: various strains of S. aureus, S. pneumoniae, E. faecalis, E. faecium, B. subtilis and E. coli, including MRSA, VRE, multidrug-resistant E. faecium …; assay: as above; assay type: cell-based; settings: various strains of S. aureus, S. pneumoniae, E. faecalis, E. faecium, B. subtilis and E. coli, including MRSA, VRE, multidrug-, macrolide- and linezolid-resistant species
Protocol: as §1, §2, §3, §4

- MIC [1]: 0.5 to 32 µg/mL (≈ 1.18 to 75.2 µM)
SMILES: C=C1C[C@@]23C=CC(=O)[C@@](C)(CCC(=O)Nc4c(O)ccc(C(=O)O)c4O)C2C[C@@H]1CC3 (stereo in doubt) [Compound I]
- antibacterial activity [2]: demonstrates antibacterial activity
